Measured values as given in ChEMBL document CHEMBL5385891, “Design and discovery of novel dipeptide boronic acid ester proteasome inhibitors, an oral slowly-released prodrug for the treatment of multiple myeloma” (Eur J Med Chem, 2023).

What was measured:
[1] = Stability of the compound in stimulated […] fluid at pH 1.2 measured after 1 min; format: ADME; conditions: simulated gi fluid, pH 1.2, 1 min
[2] = tested on: RPMI-8226; assay: Cytotoxicity against human RPMI-8226 cells assessed as inhibition of cell proliferation incubated for 72 hrs by Cell Titer-Glo luminescence assay; format: functional, cell-based; conditions: RPMI-8226, 72 h
[3] = Stability of the compound in stimulated […] fluid at pH 1.2 measured after 12 hrs; format: ADME; conditions: simulated gi fluid, pH 1.2, 12 h
[4] = Stability of the compound in stimulated […] fluid at pH 1.2 measured after 4 hrs; format: ADME; conditions: simulated gi fluid, pH 1.2, 4 h
[5] = Stability of the compound in stimulated […] fluid at pH 6.8 measured after 8 hrs; format: ADME; conditions: simulated intestinal fluid, read-out: Stability
[6] = Stability of the compound in stimulated […] fluid at pH 6.8 measured after 12 hrs; format: ADME; conditions: simulated intestinal fluid, read-out: Stability
[7] = Stability of the compound in stimulated […] fluid at pH 1.2 measured after 2 hrs; format: ADME; conditions: simulated gi fluid, pH 1.2, 2 h
[8] = Stability of the compound in stimulated […] fluid at pH 6.8 measured after 4 hrs; format: ADME; conditions: simulated intestinal fluid, read-out: Stability
[9] = Stability of the compound in stimulated […] fluid at pH 1.2 measured after 8 hrs; format: ADME; conditions: simulated gi fluid, pH 1.2, 8 h
[10] = Stability of the compound in stimulated […] fluid at pH 6.8 measured after 1 min; format: ADME; conditions: simulated intestinal fluid, read-out: Stability
[11] = Stability of the compound in stimulated […] fluid at pH 6.8 measured after 2 hrs; format: ADME; conditions: simulated intestinal fluid, read-out: Stability
[12] = molecular target: 20S proteasome; assay: Inhibition of human 20S proteasome chymotrypsin-like activity using Suc-Leu-Leu-Val-Tyr-AMC as fluorogenic peptide pre-incubated for 10 mins with compound followed by substrate addition for 60 mins by spectrofluorimetric analysis; format: protein-complex assay
[13] = Intrinsic clearance in rat liver microsomes at 1 uM incubated for 2 to 60 mins in presence of NADPH by LC-MS/MS analysis; format: ADME, Microsome; conditions: time 2-60 min, read-out: CLH
[14] = Cmax in Sprague-Dawley rat at 1.2 mg/kg,IG measured upto 24 hrs by LC-MS/MS analysis; format: ADME, organism-based; parameters: time < 24 hrs, dose 1.2 mg/kg, route ig; conditions: in vivo, po
[15] = Intrinsic clearance in monkey liver microsomes at 1 uM incubated for 2 to 60 mins in presence of NADPH by LC-MS/MS analysis; format: ADME, Macaca mulatta, Microsome; conditions: rhesus monkey, time 2-60 min, read-out: CLH
[16] = AUC(0-t) in Sprague-Dawley rat at 1.2 mg/kg,IG measured upto 24 hrs by LC-MS/MS analysis; format: ADME, organism-based; parameters: dose 1.2 mg/kg, time < 24 hrs, route ig; conditions: in vivo, po
[17] = Intrinsic clearance in dog liver microsomes at 1 uM incubated for 2 to 60 mins in presence of NADPH by LC-MS/MS analysis; format: ADME, Canis lupus familiaris, Microsome; conditions: time 2-60 min, read-out: CLH
[18] = Half life in human liver microsomes at 1 uM incubated for 2 to 60 mins in presence of NADPH by LC-MS/MS analysis; format: ADME, Microsome; conditions: time 2-60 min
[19] = Half life in mouse liver microsomes at 1 uM incubated for 2 to 60 mins in presence of NADPH by LC-MS/MS analysis; format: ADME, Microsome; conditions: time 2-60 min
[20] = Half life in Sprague-Dawley rat at 0.4 mg/kg,iv measured upto 24 hrs by LC-MS/MS analysis; format: ADME, organism-based; conditions: in vivo
[21] = Half life in monkey liver microsomes at 1 uM incubated for 2 to 60 mins in presence of NADPH by LC-MS/MS analysis; format: ADME, Macaca mulatta, Microsome; conditions: rhesus monkey, time 2-60 min
[22] = Half life in rat liver microsomes at 1 uM incubated for 2 to 60 mins in presence of NADPH by LC-MS/MS analysis; format: ADME, Microsome; conditions: time 2-60 min
[23] = Intrinsic clearance in human liver microsomes at 1 uM incubated for 2 to 60 mins in presence of NADPH by LC-MS/MS analysis; format: ADME, Microsome; conditions: time 2-60 min, read-out: CLH
[24] = Half life in Sprague-Dawley rat at 1.2 mg/kg,IG measured upto 24 hrs by LC-MS/MS analysis; format: ADME, organism-based; conditions: in vivo, po
[25] = AUC (0-t) in Sprague-Dawley rat at 0.4 mg/kg,iv measured upto 24 hrs by LC-MS/MS analysis; format: ADME, organism-based; parameters: time < 24 hrs, dose 0.4 mg/kg, route iv; conditions: in vivo
[26] = Half life in dog liver microsomes at 1 uM incubated for 2 to 60 mins in presence of NADPH by LC-MS/MS analysis; format: ADME, Canis lupus familiaris, Microsome; conditions: time 2-60 min
[27] = Intrinsic clearance in mouse liver microsomes at 1 uM incubated for 2 to 60 mins in presence of NADPH by LC-MS/MS analysis; format: ADME, Microsome; conditions: time 2-60 min, read-out: CLH
[28] = Oral bioavailability in Sprague-Dawley rat at 1.2 mg/kg measured upto 24 hrs by LC-MS/MS analysis; format: ADME, organism-based; conditions: in vivo
[29] = Tmax in Sprague-Dawley rat at 1.2 mg/kg,IG measured upto 24 hrs by LC-MS/MS analysis; format: ADME, organism-based; conditions: in vivo, po

SMILES | Stability [1] | IC50 [2] | Stability [3] | Stability [4] | remaining at 8 h [5] | remaining at 12 h [6] | Stability [7] | remaining at 4 h [8] | Stability [9] | remaining at 1 min [10] | remaining at 2 h [11] | IC50 [12] | further results
CC(C)C[C@H](NC(=O)CNC(=O)c1cc(Cl)ccc1Cl)B1OC2(C)CC3C(=O)NC(=O)C3CC2(C)O1 (some centres not stated) | 53.28% | 7.5 nM | 38.47% | 53.78% | 6.91% | 7.27% | 51.59% | 9.23% | 41.57% | 5.4% | 7.58% | 8.4 nM | –
CC(C)C[C@H](NC(=O)C(NC(=O)c1cc(C(F)(F)F)ccc1C(F)(F)F)C1CC1)B(O)O (some centres not stated) | – | 6.7 nM | – | – | – | – | – | – | – | – | – | 5.6 nM | –
CC(C)C[C@H](NC(=O)CNC(=O)c1cc(F)ccc1F)B(O)O | – | 41.5 nM | – | – | – | – | – | – | – | – | – | 20.6 nM | –
CC(C)C[C@H](NC(=O)C(NC(=O)c1cc(C(F)(F)F)ccc1C(F)(F)F)C1CCCC1)B(O)O (some centres not stated) | – | 6.9 nM | – | – | – | – | – | – | – | – | – | 6 nM | –
CC(C)C[C@H](NC(=O)CNC(=O)c1cc(Br)ccc1Br)B(O)O | – | 14.7 nM | – | – | – | – | – | – | – | – | – | 4 nM | –
CC(C)C[C@H](NC(=O)CNC(=O)c1cc(Cl)ccc1Cl)B1OC2C3CC(C(=O)O)C(O3)C2O1 (some centres not stated) | 14.06% | 4.4 nM | 83.15% | 82.49% | 19.6% | 19.9% | 83.62% | 19.8% | 78.47% | 21% | 23.9% | 6.3 nM | –
CC(C)C[C@H](NC(=O)CNC(=O)c1cc(Cl)ccc1Cl)B1OC2CC3C(=O)NC(=O)C3CC2(C)O1 (some centres not stated) | – | 8.7 nM | – | – | – | – | – | – | – | – | – | 9.8 nM | –
CC(C)C[C@H](NC(=O)CNC(=O)c1cc(Cl)ccc1Cl)B1OC2C3OC(CC3C(=O)O)C2(C)O1 (some centres not stated) | 6.7% | 5 nM | 58.21% | 61.18% | 12.5% | 14.2% | 60.84% | 12.4% | 58.58% | 7.36% | 12.9% | 5.2 nM | –
CC(C)C[C@H](NC(=O)C1(NC(=O)c2cc(C(F)(F)F)ccc2C(F)(F)F)CC1)B(O)O | – | – | – | – | – | – | – | – | – | – | – | 86.7 nM | –
CC(C)C[C@H](NC(=O)CNC(=O)c1cc(Cl)ccc1Cl)B1OC2(C)CCC(C(=O)O)CC2(C)O1 (some centres not stated) | 62.06% | 5.3 nM | 96.98% | 97.62% | 85.7% | 78.7% | 98.08% | 91.5% | 98.81% | 90.1% | 83.7% | 9.6 nM | –
COc1ccc(OC)c(C(=O)NCC(=O)N[C@@H](CC(C)C)B(O)O)c1 | – | 57.9 nM | – | – | – | – | – | – | – | – | – | 15.8 nM | –
CC(C)C[C@H](NC(=O)CNC(=O)c1cc(Cl)ccc1Cl)B1OC2C3OC(c4ccccc43)C2O1 (some centres not stated) | 19.33% | 6.9 nM | 48.53% | 50.68% | 1.35% | 1.33% | 35.35% | 1.18% | 52.71% | 1.9% | 1.79% | 7.7 nM | –
CC(C)C[C@H](NC(=O)C(NC(=O)c1cc(C(F)(F)F)ccc1C(F)(F)F)C1CCCC1)B1OC2C3OC(CC3C(=O)O)C2(C)O1 (some centres not stated) | – | 13.6 nM | – | – | – | – | – | – | – | – | – | 2.4 nM | –
CC(C)C[C@H](NC(=O)CNC(=O)c1cc(C(F)(F)F)ccc1C(F)(F)F)B(O)O | – | 18.4 nM | – | – | – | – | – | – | – | – | – | 5.2 nM | –
CC(C)C[C@H](NC(=O)C(NC(=O)c1cc(C(F)(F)F)ccc1C(F)(F)F)C1CC1)B1OC2C3OC(CC3C(=O)O)C2(C)O1 (some centres not stated) | 5.35% | 2.9 nM | 58.73% | 57.32% | 3.93% | 5.76% | 56.83% | 2.68% | 58.67% | 2.35% | 2.82% | 2.7 nM | microsomal CLint at 1 µM [13]: 55.6 µL/min/mg; Cmax [14]: 46.5 ng/mL; microsomal CLint at 1 µM [15]: 35.6 µL/min/mg; AUC(0-t) at 24 h [16]: 126 ng·h/mL; microsomal CLint at 1 µM [17]: 16.4 µL/min/mg; half-life at 1 µM [18]: 66.6 min; half-life at 1 µM [19]: 36.7 min; half-life [20]: 1450 min; half-life at 1 µM [21]: 38.9 min; half-life at 1 µM [22]: 24.9 min; microsomal CLint at 1 µM [23]: 20.8 µL/min/mg; half-life [24]: 718 min; AUC(0-t) at 24 h [25]: 323 ng·h/mL; half-life at 1 µM [26]: 84.5 min; microsomal CLint at 1 µM [27]: 37.8 µL/min/mg; bioavailability [28]: 9.8%; Tmax [29]: 10.2 min
Cc1cc(C(=O)NCC(=O)N[C@@H](CC(C)C)B(O)O)no1 | – | – | – | – | – | – | – | – | – | – | – | 124 nM | –
CC(C)C[C@H](NC(=O)C1(NC(=O)c2cc(C(F)(F)F)ccc2C(F)(F)F)CCCC1)B(O)O | – | – | – | – | – | – | – | – | – | – | – | 285 nM | –
CC(C)C[C@H](NC(=O)C(CC1CC1)NC(=O)c1cc(C(F)(F)F)ccc1C(F)(F)F)B(O)O (some centres not stated) | – | 4.9 nM | – | – | – | – | – | – | – | – | – | 5 nM | –
CC(C)C[C@H](NC(=O)CNC(=O)c1cc(Cl)ccc1Cl)B1OC2C3OC(C4C(=O)NC(=O)C34)C2(C)O1 (some centres not stated) | 70.91% | 6.8 nM | 66.9% | 70.5% | 13.5% | 10.8% | 67.8% | 11.4% | 66.14% | 15% | 11.4% | 22.4 nM | –
